# According to patent US9296741B2, “Bromodomain inhibitors” (priority 2012, dated 2016):
# Assays:
# [1] = system: breast cancer cell line MX-1; test: MX-1 cell line proliferation assay; type: cell-based, human; details: Homo sapiens, MX1, 72 h; MX-1 cells, 3-day proliferation, Cell Titer Glo; read-out: Cellular proliferation: EC50
# [2] = Human liver microsome stability assay; type: in vitro ADME; details: both sexes, human, microsomes, pH 7.4
# [3] = target: human BRD4 first bromodomain (BDI_K57-E168) (Homo sapiens (Human), UniProt O60885); test: TR-FRET bromodomain binding assay, BRD4 first bromodomain
# [4] = Mouse liver microsome stability assay; type: in vitro ADME; details: male, CD1, mouse, microsomes, pH 7.4
# [5] = target: human BRD4 second bromodomain (BDII_E352-M457) (Homo sapiens (Human), UniProt O60885); test: TR-FRET bromodomain binding assay, BRD4 second bromodomain
# [6] = Rat liver microsome stability assay; type: in vitro ADME; details: rat liver microsomes (male Sprague-Dawley), 0.5 μM test compound, 0.25 mg/mL microsomal protein, pH 7.4, 37° C.; read-out: Stability in rat liver microsomes (t1/2 in minutes)
Compound,EC50 [1] [nM],half-life at 0.5 μM [2] [min],Ki [3] [nM],half-life at 0.5 μM [4] [min],Ki [5] [nM],half-life at 0.5 μM [6] [min]
"Cn1cc(-c2cc(S(=O)(=O)C(F)(F)F)ccc2NCC2CC2)c2cc[nH]c2c1=O [Example 244, 4-{2-[(cyclopropylmethyl)amino]-5-[(trifluoromethyl)sulfonyl]phenyl}-6-methyl-1,6-dihydro-7H-pyrrolo[2,3-c]pyridin-7-one]",254,53,23.2,87,73.7,6
"CCS(=O)(=O)Nc1ccc(OCC2CC2)c(-c2cn(C)c(=O)c3[nH]ccc23)c1C [Example 251, N-[4-(cyclopropylmethoxy)-2-methyl-3-(6-methyl-7-oxo-6,7-dihydro-1H-pyrrolo[2,3-c]pyridin-4-yl)phenyl]ethanesulfonamide]",573,118,63.1,44,171,23
"Cn1cc(-c2cc(S(C)(=O)=O)ccc2Oc2ccc(F)cc2F)c2cc(C(N)=O)[nH]c2c1=O [Example 252, 4-[2-(2,4-difluorophenoxy)-5-(methylsulfonyl)phenyl]-6-methyl-7-oxo-6,7-dihydro-1H-pyrrolo[2,3-c]pyridine-2-carboxamide]",246,68,10.1,> 120,1.7,> 120
"Cn1cc(-c2cc(S(C)(=O)=O)ccc2Oc2ccc(F)cc2F)c2cc(C(=O)N3CCOCC3)[nH]c2c1=O [Example 255, 4-[2-(2,4-difluorophenoxy)-5-(methylsulfonyl)phenyl]-6-methyl-2-(morpholin-4-ylcarbonyl)-1,6-dihydro-7H-pyrrolo[2,3-c]pyridin-7-one]",265,70,10.5,> 120,154,> 120
"CN1CCN(C(=O)c2cc3c(-c4cc(S(C)(=O)=O)ccc4Oc4ccc(F)cc4F)cn(C)c(=O)c3[nH]2)CC1 [Example 256, 4-[2-(2,4-difluorophenoxy)-5-(methylsulfonyl)phenyl]-6-methyl-2-[(4-methylpiperazin-1-yl)carbonyl]-1,6-dihydro-7H-pyrrolo[2,3-c]pyridin-7-one]",405,58,6.1,71,84,58
"Cn1cc(-c2cc(S(C)(=O)=O)ccc2Oc2ccc(F)cc2F)c2cc(C(=O)Nc3nccs3)[nH]c2c1=O [Example 257, 4-[2-(2,4-difluorophenoxy)-5-(methylsulfonyl)phenyl]-6-methyl-7-oxo-N-(1,3-thiazol-2-yl)-6,7-dihydro-1H-pyrrolo[2,3-c]pyridine-2-carboxamide]",360,18,58.8,20.3,3,56
"CN(C)C(=O)c1cc2c(-c3cc(S(C)(=O)=O)ccc3Oc3ccc(F)cc3F)cn(C)c(=O)c2[nH]1 [Example 269, 4-[2-(2,4-difluorophenoxy)-5-(methylsulfonyl)phenyl]-N,N,6-trimethyl-7-oxo-6,7-dihydro-1 H-pyrrolo[2,3-c]pyridine-2-carboxamide]",329,79,12.4,58,56.9,83
"Cn1cc(-c2cc(S(C)(=O)=O)ccc2Oc2ccc(F)cc2F)c2cc(CN3CCOCC3)[nH]c2c1=O [Example 280, 4-[2-(2,4-difluorophenoxy)-5-(methylsulfonyl)phenyl]-6-methyl-2-(morpholin-4-ylmethyl)-1,6-dihydro-7H-pyrrolo[2,3-c]pyridin-7-one]",292,17,19.2,36,92,84

# These reach a lower EC50 [1]. Values come first.
EC50 [1] [nM],half-life at 0.5 μM [2] [min],Ki [3] [nM],half-life at 0.5 μM [4] [min],Ki [5] [nM],half-life at 0.5 μM [6] [min],Compound
204,9,17.3,7,72.3,21,"Cn1cc(-c2cc(S(C)(=O)=O)ccc2Oc2ccc(F)cc2F)c2cc(CNc3ccccc3)[nH]c2c1=O [Example 282, 4-[2-(2,4-difluorophenoxy)-5-(methylsulfonyl)phenyl]-6-methyl-2-[(phenylamino)methyl]-1,6-dihydro-7H-pyrrolo[2,3-c]pyridin-7-one]"
191,25,1.8,116,108,119,"CN1CCN(Cc2cc3c(-c4cc(S(C)(=O)=O)ccc4Oc4ccc(F)cc4F)cn(C)c(=O)c3[nH]2)CC1 [Example 281, 4-[2-(2,4-difluorophenoxy)-5-(methylsulfonyl)phenyl]-6-methyl-2-[(4-methylpiperazin-1-yl)methyl]-1,6-dihydro-7H-pyrrolo[2,3-c]pyridin-7-one]"
145,72,20.4,90,1.2,110,"CCNC(=O)c1cc2c(-c3cc(S(C)(=O)=O)ccc3Oc3ccc(F)cc3F)cn(C)c(=O)c2[nH]1 [Example 253, 4-[2-(2,4-difluorophenoxy)-5-(methylsulfonyl)phenyl]-N-ethyl-6-methyl-7-oxo-6,7-dihydro-1 H-pyrrolo[2,3-c]pyridine-2-carboxamide]"
76.5,42,5.9,69.8,12.4,91,"CCOC(=O)N1CCC(Oc2ccc(S(C)(=O)=O)cc2-c2cn(C)c(=O)c3[nH]ccc23)CC1 [Example 258, ethyl 4-[2-(6-methyl-7-oxo-6,7-dihydro-1H-pyrrolo[2,3-c]pyridin-4-yl)-4-(methylsulfonyl)phenoxy]piperidine-1-carboxylate]"
75.1,74,79.6,91,8.7,> 120,"Cn1cc(-c2cc(S(C)(=O)=O)ccc2Oc2ccc(F)cc2F)c2cc(C(=O)NCC(F)(F)F)[nH]c2c1=O [Example 254, 4-[2-(2,4-difluorophenoxy)-5-(methylsulfonyl)phenyl]-6-methyl-7-oxo-N-(2,2,2-trifluoroethyl)-6,7-dihydro-1H-pyrrolo[2,3-c]pyridine-2-carboxamide]"
21.3,23,2.9,11,1.9,12,"CC(C)S(=O)(=O)c1ccc(Oc2ccc(F)cc2F)c(-c2cn(C)c(=O)c3[nH]ccc23)c1 [Example 271, 4-[2-(2,4-difluorophenoxy)-5-(propan-2-ylsulfonyl)phenyl]-6-methyl-1,6-dihydro-7H-pyrrolo[2,3-c]pyridin-7-one]"
7.2,25,1.5,16,1.6,5,"CC(C)S(=O)(=O)c1ccc(NCC2CC2)c(-c2cn(C)c(=O)c3[nH]ccc23)c1 [Example 261, 4-{2-[(cyclopropylmethyl)amino]-5-(propan-2-ylsulfonyl)phenyl}-6-methyl-1,6-dihydro-7H-pyrrolo[2,3-c]pyridin-7-one]"
